# Laboratory results from patent US20220133650A1, “COMBINATION THERAPY FOR TREATMENT OF BRAIN DISORDERS” (B. G. NEGEV TECHNOLOGIES AND APPLICATIONS LTD., AT …, priority 2019, published 2022).
# How the values were obtained:
# [1] = test system: exposed rat cortex; assay: Seizure (4AP)-induced BBB dysfunction, fluorescent angiography permeability index; format: in vivo, Sprague-Dawley rats; conditions: 4AP-induced seizures (SE), NaFlu tracer, mean±SEM
# [2] = test system: rat brain; assay: T2-weighted MRI after photo-induced thrombotic stroke, relative lesion volume; format: in vivo; conditions: 48 h following photothrombosis; osmotic pumps i.p.; memantine 40 mg/kg, losartan 60 mg/kg; mean±SEM
# [3] = test system: rat brain; assay: Contrast enhanced T1-weighted MRI after photo-induced thrombotic stroke, relative BBB dysfunction volume; format: in vivo; conditions: 48 h following photothrombosis; osmotic pumps i.p.; memantine 40 mg/kg, losartan 60 mg/kg; mean±SEM
# [4] = test system: exposed rat cortex; assay: Agonist-induced vascular permeability to NaFlu, agonists added to ACSF with neuronal activity blocked; format: in vivo, Sprague-Dawley rats; conditions: neuronal activity and synaptic transmission blocked, mean±SEM
# [5] = 10 min after adding the agonist to ACSF
# [6] = 30 min after adding the agonist to ACSF
Compound,shift in PI (BBB permeability index) from baseline ([1]; 10 min from seizure onset),shift in PI (BBB permeability index) from baseline ([1]; 30 min from seizure onset),relative lesion volume (100*# lesion voxels/# brain voxels) [2],relative BBB dysfunction volume (100*# BBBD voxels/# brain voxels) [3],"shift in vascular permeability to NaFlu (PI shift from pre-substance application) [4, 5]","shift in vascular permeability to NaFlu (PI shift from pre-substance application) [4, 6]"
"N[C@H](CCCP(=O)(O)O)C(=O)O [AP5, D-(−)-2-amino-5-phosphonopentanoic acid]",−1.19±4.71%,18.78±6.93%,–,–,–,–
"CC12CC3CC(C)(C1)CC(N)(C3)C2 [memantine, 3,5-dimethyladamantan-1-amine]",3.14±3.1%,20.86±3.78%,24.18±3.75%,15.03±1.83%,–,–
"bovine-serum albumin: bovine serum albumin, 0.2 mM added to the ACSF",–,–,–,–,−2.55±4.6%,−0.33±8.36%
"TGF-β1: transforming growth factor beta 1, 10 ng/ml added to the ACSF",–,–,–,–,–,15.3±7.62%
"angiotensin II (DRVYIHPF; Angiotensin-2; UniProt P01019 25-32, looked up) [ATII, angiotensin II, agonist added to the ACSF, 70 μM]",–,–,–,–,−4.11±3.35%,−12.33±3.45%
